The values below come from patent US6407239B1, “Aromatic esters of camptothecins and methods to treat cancers” (priority 1999, dated 2002).

Data set [1] has as its system 14 human cell lines. Briefly: compounds tested against 14 human cell lines (in vitro). The format is cell-based. An excerpt: What is interesting from these in vitro data is that the activity of these esters is related to the substituents on their side aromatic rings. […] Thus, the difference in activity among the esters of the present invention are due to the different substituents on their side aromatic ring.

For data set [2] the following is noted: cited from earlier work.
For data set [3] the following is noted: cited from earlier work. The source holds these as a separate data set.
The conditions of data set [4]: animal models; cited from earlier work.
For data set [5] the following is noted: cited from earlier work. This is another data set of the same source.
The test system of data set [6] is mouse leukemia L 1210. The note with it: initial test; cited from earlier work.
For data set [7] the following is noted: patients, early trials; cited from earlier work.

As for 20-O-phenyl-9-nitrocamptothecin [CZ176], in data set [1], the “activity (response of 14 human cell lines)” value was “do not show any activity”. As for `CC[C@@]1(O)C(=O)OCc2c1cc1n(c2=O)Cc2cc3c([N+](=O)[O-])cccc3nc2-1` [9-nitrocamptothecin], in data set [2], the “found as the lactone form in human plasma” value is given as 5%. Moreover, the “present as lactone form in mice plasma” value in data set [3] was “about 50%”. Turning to `CC[C@@](O)(C(=O)[O-])c1cc2n(c(=O)c1CO)Cc1cc3ccccc3nc1-2.[Na+]` [CPT sodium carboxylate], the “potency relative to the parent camptothecin” value in data set [4] is recorded as 10-20%. Besides, in data set [5], the solubility in water result was “water-soluble”. As for `CC[C@@]1(OC(=O)c2ccccc2)C(=O)OCc2c1cc1n(c2=O)Cc2cc3ccccc3nc2-1` [CZ222], the “activity (response of 14 human cell lines)” value in data set [1] is on record as “do not show any activity”. `CC[C@@]1(O)C(=O)OCc2c1cc1n(c2=O)Cc2cc3ccccc3nc2-1` [Camptothecin]: in data set [6], the “activity against mouse leukemia L 1210” value was “showed good activity”. In data set [7], the “anticancer activity in human clinical trials” value is “anticancer activity was not found” and the “toxicity in human clinical trials” value was “severe toxicity was observed”.
